Patent publication US11572399B2, “Long-acting GIP peptide analogues” (University of Copenhagen, priority 2017, dated 2023)
Numbered stars: 1 amine (or outer) side, 2 acyl side, 3 side chain; on linkers, the order of the positions; unused ones are H or OH. Side chains are listed from the residue outwards. Peptide text beside a SMILES is read from it. * marks the point of attachment. C16 diacid = O=C(O)CCCCCCCCCCCCCCC(=O)*; γGlu = O=C(O)[C@H](CCC(=O)[*:2])N[*:1]; Palmitoyl = CCCCCCCCCCCCCCCC(=O)*; βAla = NCCC(=O)O

Assays:
human GIP receptor [1] = biological target: T1, human GIP receptor (Homo sapiens, UniProt P48546); experiment: cAMP accumulation assay, antagonism of a GIP-mediated cAMP response (50-80% of max); format: cell-based; conditions: for cAMP - antagonisme fold (paired): fold vs GIP(3-30)NH2, Table 3b; for IC50: transiently transfected COS-7 cells, Table 1 and text, read-out: cAMP antagonism nM (IC50, antagonistic potency); for Fold change from GIP(3-30)NH2 (increase in potency): Table 5
T1 construct: host or cells: COS-7, transient transfection (calcium phosphate), cDNA in pCMV-Script
T1 sequence (P48546 22-466): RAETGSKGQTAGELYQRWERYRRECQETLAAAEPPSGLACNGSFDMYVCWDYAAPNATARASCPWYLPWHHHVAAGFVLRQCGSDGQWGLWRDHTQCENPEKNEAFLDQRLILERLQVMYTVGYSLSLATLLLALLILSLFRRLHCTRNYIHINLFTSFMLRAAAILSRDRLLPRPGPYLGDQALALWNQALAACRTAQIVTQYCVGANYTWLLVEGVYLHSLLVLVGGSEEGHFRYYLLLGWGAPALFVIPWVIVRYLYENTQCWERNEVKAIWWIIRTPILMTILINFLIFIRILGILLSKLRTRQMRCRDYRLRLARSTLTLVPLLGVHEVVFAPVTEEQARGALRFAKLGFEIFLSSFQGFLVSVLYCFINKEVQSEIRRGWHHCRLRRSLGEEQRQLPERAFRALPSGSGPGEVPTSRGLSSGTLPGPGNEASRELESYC
Protocol: The day after, the cells were washed twice with Hepes buffered saline (HBS) buffer and incubated with HBS and 1 mM 3-isobutyl-1-methylxanthine (IBMX) for 30 min at 37° C. […] The HitHunter™ cAMP XS assay (DiscoveRx) was carried out according to the manufacturer's instructions.

[2] = Elimination half-life (T1/2) estimated in pigs, subcutaneous, RIA; format: in vivo; conditions: pig; for half-life: plasma, sc, pigs, subcutaneous 1-10 nmol/kg; for T½: subcutaneous
Protocol: LYH/LYD strain pigs or mini-pigs were housed in the animal facility at the Faculty of Health and Medical Sciences.
A pig was subcutaneously administered one of the lipidated GIP(3-30)NH2 analogs (compound AT117) (1-10 nmol/kg, total volume 2-6 mL) after which 10-18 blood samples were collected before and up to 57 hours post subcutaneous administration) from a central venous catheter. The catheter was flushed with saline and heparin between samples. Blood was collected into cold EDTA tubes, centrifuged and plasma was kept at −20° C. pending analyses. When experiments are completed, the animals will be killed.
Concentrations of the lipidated GIP(3-30)NH2 or GIP(5-30)NH2 analogues in blood samples from pigs were analysed by RIA. Analogues' immunoreactivity was determined using antiserum Ab95234, Ab95235, Ab95236, a polyclonal in-house antibody raised in rabbits specific for either the mid region of GIP(1-30)NH2 or amidated C-terminus of GIP(3-30)NH2.

human GIP receptor [3] = biological target: T1, human GIP receptor; experiment: cAMP accumulation assay, agonism (ligand alone); format: cell-based; conditions: COS-7 cells, Table 1; for Emax: COS-7, intrinsic cAMP activity
human GIP receptor [4] = biological target: T1, human GIP receptor; experiment: 125I-human GIP competition binding assay, in the presence and absence of 2% HSA; conditions: for Binding fold (paired): fold decrease in affinity compared to GIP(3-30)NH2; for Fold change in affinity, IC50 (plus HSA)/IC50 (minus HSA): presence vs absence of 2% HSA, proxy for albumin binding;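 as to all read-outs here: nonspecific binding taken as radioligand bound to untransfected cells, IC50 obtained from nonlinear regression fits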
[5] = Solubility of linker analogues; format: physicochemical; conditions: read-out: Solubility, obtainable concentration
[6] = 0.1% casein, no HSA, Table 3b, read-out: Binding logIC50 0.1% casein (converted)
[7] = Table 3b, initial data, read-out: Binding IC50
[8] = heterologous competition binding, transiently transfected COS-7 cells expressing the human GIP receptor, read-out: Binding
[9] = binding in presence of 2% HSA, read-out: logIC50 2% HSA (converted)

| Structure (SMILES) | cAMP - antagonisme fold (paired) (human GIP receptor [1]) | IC50 (human GIP receptor [1]) | half-life [2] | Emax (human GIP receptor [3]) | IC50 (human GIP receptor [4]; [6]) | IC50 (human GIP receptor [4]; [7]) | Binding fold (paired) (human GIP receptor [4]; Table 3b) | IC50 (human GIP receptor [4]; [8]) | Fold change in affinity, IC50 (plus HSA)/IC50 (minus HSA) (human GIP receptor [4]) | Fold change from GIP(3-30)NH2 (increase in potency) (human GIP receptor [1]) | solubility [5] | T½ [2] | IC50 (human GIP receptor [4]; [9]) | also measured |
| --- | --- | --- | --- | --- | --- | --- | --- | --- | --- | --- | --- | --- | --- | --- |
| CC[C@H](C)[C@H](NC(=O)[C@H](CO)NC(=O)[C@H](Cc1ccc(O)cc1)NC(=O)[C@H](CC(=O)O)NC(=O)[C@H](CO)NC(=O)[C@@H](NC(=O)[C@H](Cc1ccccc1)NC(=O)[C@@H](NC(=O)CNC(=O)[C@@H](N)CCC(=O)O)[C@@H](C)O)[C@@H](C)CC)C(=O)N[C@@H](C)C(=O)N[C@@H](CCSC)C(=O)N[C@@H](CC(=O)O)C(=O)N[C@@H](CCCNC(=N)N)C(=O)N[C@H](C(=O)N[C@@H](CCCCNC(=O)CCCCCCCCCCCCCCC(=O)O)C(=O)N[C@@H](CCC(N)=O)C(=O)N[C@@H](CCC(N)=O)C(=O)N[C@@H](CC(=O)O)C(=O)N[C@@H](Cc1ccccc1)C(=O)N[C@H](C(=O)N[C@@H](CC(N)=O)C(=O)N[C@@H](Cc1c[nH]c2ccccc12)C(=O)N[C@@H](CC(C)C)C(=O)N[C@@H](CC(C)C)C(=O)N[C@@H](C)C(=O)N[C@@H](CCC(N)=O)C(=O)N[C@@H](CCCNC(=N)N)C(N)=O)C(C)C)[C@@H](C)CC [AT159, [hGIP(3-30)NH2[K16R; H18K; K30R]-C16diacid/18]] (H-EGTFISDYSIAMDRIK(C16 diacid)QQDFVNWLLAQR-NH2; N-terminus assumed) | 0.1 fold | 6 nM | 6 h | 6% | 25 nM | 25 nM | 3 fold | 18 nM | 0.8 fold | – | – | – | – | EC50 (human GIP receptor [3]; read-out: cAMP agonism nM (EC50)): 2 nM |
| CCCCCCCCCCCCCCCC(=O)NCCC(=O)NCCCC[C@H](NC(=O)[C@@H](NC(=O)[C@H](CCCCN)NC(=O)[C@H](CC(=O)O)NC(=O)[C@H](CCSC)NC(=O)[C@H](C)NC(=O)[C@@H](NC(=O)[C@H](CO)NC(=O)[C@H](Cc1ccc(O)cc1)NC(=O)[C@H](CC(=O)O)NC(=O)[C@H](CO)NC(=O)[C@@H](NC(=O)[C@H](Cc1ccccc1)NC(=O)[C@@H](NC(=O)CNC(=O)[C@@H](N)CCC(=O)O)[C@@H](C)O)[C@@H](C)CC)[C@@H](C)CC)[C@@H](C)CC)C(=O)N[C@@H](CCC(N)=O)C(=O)N[C@@H](CCC(N)=O)C(=O)N[C@@H](CC(=O)O)C(=O)N[C@@H](Cc1ccccc1)C(=O)N[C@H](C(=O)N[C@@H](CC(N)=O)C(=O)N[C@@H](Cc1c[nH]c2ccccc12)C(=O)N[C@@H](CC(C)C)C(=O)N[C@@H](CC(C)C)C(=O)N[C@@H](C)C(=O)N[C@@H](CCC(N)=O)C(=O)N[C@@H](CCCCN)C(N)=O)C(C)C [AT166, [hGIP(3-30)NH2[H18K]-C16/18+β-alanine]] (H-EGTFISDYSIAMDKIK([βAla-Palmitoyl])QQDFVNWLLAQK-NH2; N-terminus assumed) | – | – | – | – | – | – | – | – | – | 2.9 fold | ≤ 63.2 µM | – | – | – |
| CCCCCCCCCCCCCCCC(=O)N[C@@H](CCC(=O)NCCCC[C@H](NC(=O)[C@@H](NC(=O)[C@H](CCCCN)NC(=O)[C@H](CC(=O)O)NC(=O)[C@H](CCSC)NC(=O)[C@H](C)NC(=O)[C@@H](NC(=O)[C@H](CO)NC(=O)[C@H](Cc1ccc(O)cc1)NC(=O)[C@H](CC(=O)O)NC(=O)[C@H](CO)NC(=O)[C@@H](NC(=O)[C@H](Cc1ccccc1)NC(=O)[C@@H](NC(=O)CNC(=O)[C@@H](N)CCC(=O)O)[C@@H](C)O)[C@@H](C)CC)[C@@H](C)CC)[C@@H](C)CC)C(=O)N[C@@H](CCC(N)=O)C(=O)N[C@@H](CCC(N)=O)C(=O)N[C@@H](CC(=O)O)C(=O)N[C@@H](Cc1ccccc1)C(=O)N[C@H](C(=O)N[C@@H](CC(N)=O)C(=O)N[C@@H](Cc1c[nH]c2ccccc12)C(=O)N[C@@H](CC(C)C)C(=O)N[C@@H](CC(C)C)C(=O)N[C@@H](C)C(=O)N[C@@H](CCC(N)=O)C(=O)N[C@@H](CCCCN)C(N)=O)C(C)C)C(=O)O [AT164, [hGIP(3-30)NH2[H18K]-C16/18+y-glutamic acid]] (H-EGTFISDYSIAMDKIK([γGlu-Palmitoyl])QQDFVNWLLAQK-NH2; N-terminus assumed) | – | – | – | – | – | – | – | – | – | 6.3 fold | ≥ 200 µM | – | – | – |
| CCCCCCCCCCCCCCCC(=O)NCCCC[C@H](NC(=O)[C@@H](NC(=O)[C@H](CCCCN)NC(=O)[C@H](CC(=O)O)NC(=O)[C@H](CCSC)NC(=O)[C@H](C)NC(=O)[C@@H](NC(=O)[C@H](CO)NC(=O)[C@H](Cc1ccc(O)cc1)NC(=O)[C@H](CC(=O)O)NC(=O)[C@H](CO)NC(=O)[C@@H](NC(=O)[C@H](Cc1ccccc1)NC(=O)[C@@H](NC(=O)CNC(=O)[C@@H](N)CCC(=O)O)[C@@H](C)O)[C@@H](C)CC)[C@@H](C)CC)[C@@H](C)CC)C(=O)N[C@@H](CCC(N)=O)C(=O)N[C@@H](CCC(N)=O)C(=O)N[C@@H](CC(=O)O)C(=O)N[C@@H](Cc1ccccc1)C(=O)N[C@H](C(=O)N[C@@H](CC(N)=O)C(=O)N[C@@H](Cc1c[nH]c2ccccc12)C(=O)N[C@@H](CC(C)C)C(=O)N[C@@H](CC(C)C)C(=O)N[C@@H](C)C(=O)N[C@@H](CCC(N)=O)C(=O)N[C@@H](CCCCN)C(N)=O)C(C)C [AT117, [hGIP(3-30)NH2[H18K]-C16/18]] (H-EGTFISDYSIAMDKIK(Palmitoyl)QQDFVNWLLAQK-NH2; N-terminus assumed) | 2.3 fold | 15 nM | 8 h | 0% | 110 nM | 292 nM | 12 fold | 292 nM | 15.7 fold | – | – | 8 h | 1730 nM | IC50 (human GIP receptor [4]; 2% HSA, Table 3b, read-out: Binding logIC50 2% HSA (converted)): 1730 nM |
| CC[C@H](C)[C@H](NC(=O)[C@H](CCCCN)NC(=O)[C@H](CC(=O)O)NC(=O)[C@H](CCSC)NC(=O)[C@H](CCCCNC(=O)CCCCCCCCCCCCCCC(=O)O)NC(=O)[C@@H](NC(=O)[C@H](CO)NC(=O)[C@H](Cc1ccc(O)cc1)NC(=O)[C@H](CC(=O)O)NC(=O)[C@H](CO)NC(=O)[C@@H](NC(=O)[C@H](Cc1ccccc1)NC(=O)[C@@H](N)[C@@H](C)O)[C@@H](C)CC)[C@@H](C)CC)C(=O)N[C@@H](Cc1c[nH]cn1)C(=O)N[C@@H](CCC(N)=O)C(=O)N[C@@H](CCC(N)=O)C(=O)N[C@@H](CC(=O)O)C(=O)N[C@@H](Cc1ccccc1)C(=O)N[C@H](C(=O)N[C@@H](CC(N)=O)C(=O)N[C@@H](Cc1c[nH]c2ccccc12)C(=O)N[C@@H](CC(C)C)C(=O)N[C@@H](CC(C)C)C(=O)N[C@@H](C)C(=O)N[C@@H](CCC(N)=O)C(=O)N[C@@H](CCCCN)C(N)=O)C(C)C [AT175, [hGIP(5-30)NH2[A13K]-C16diacid/13]] (H-TFISDYSIK(C16 diacid)MDKIHQQDFVNWLLAQK-NH2; N-terminus assumed) | – | – | 6 h | 0% | – | – | – | – | 7.8 fold | – | – | 6 h | 562 nM | Ability to antagonize the GIP-mediated cAMP response (in words) (human GIP receptor [1]): highest antagonistic potencies; Fold change of IC50 versus GIP(5-30)NH2 (human GIP receptor [1]; fold change of IC50 from GIP(5-30)NH2): 0.5; Fold change HSA (2%)/Casein (0.1%) (human GIP receptor [4]; IC50 (plus HSA)/IC50 (minus HSA)): 7.8; Ki (human GIP receptor [4]; absence of HSA): 53 nM; IC50 (human GIP receptor [4]; binding in 0.1% casein (absence of HSA), log value, read-out: logIC50 0.1% casein (converted)): 79.4 nM; Binding (+/−HSA) Fold (human GIP receptor [4]; fold change +HSA/−HSA): 9.4 |
